Test results taken from US20250171438A1 (Agios Pharmaceuticals, Inc., priority 2022, published 2025).

biological target: T1, human PAH with the R408W mutation (Homo sapiens, UniProt P00439, R408W); assay: Cell Based Phenylalanine Flux Assay; settings: A375 cells expressing human R408W PAH; 24 hrs compound incubation; 13C-Tyrosine by LC-MS; average where tested multiple times; read-out: AC50
T1 construct: expressed in transfected cells
T1 sequence (P00439 1-452 R408W): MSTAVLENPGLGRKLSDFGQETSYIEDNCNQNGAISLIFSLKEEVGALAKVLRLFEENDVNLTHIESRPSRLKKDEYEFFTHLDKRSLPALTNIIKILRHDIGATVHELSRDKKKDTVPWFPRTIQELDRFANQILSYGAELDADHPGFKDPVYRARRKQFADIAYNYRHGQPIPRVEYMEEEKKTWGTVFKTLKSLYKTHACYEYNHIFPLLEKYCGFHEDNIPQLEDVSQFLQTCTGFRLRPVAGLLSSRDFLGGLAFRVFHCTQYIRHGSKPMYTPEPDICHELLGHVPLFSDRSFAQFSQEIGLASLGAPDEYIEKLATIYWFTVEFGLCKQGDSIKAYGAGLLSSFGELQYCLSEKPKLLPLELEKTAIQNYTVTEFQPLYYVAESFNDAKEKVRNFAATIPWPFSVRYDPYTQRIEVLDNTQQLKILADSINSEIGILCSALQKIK

SMILES	AC50 [nM]
Cc1ccc(-c2nnc(C(=O)N3CCc4[nH]cnc4[C@@H]3c3nc4ccccc4s3)o2)nc1 [Example 1879, (R)-(4-(benzo[d]thiazol-2-yl)-6,7-dihydro-1H-imidazo[4,5-c]pyridin-5(4H)-yl)(5-(5-methylpyridin-2-yl)-1,3,4-oxadiazol-2-yl)methanone]	1000 to 5000
O=C(c1nnc(-c2ccc(F)cn2)o1)N1CCc2[nH]cnc2[C@H]1c1nc2ccccc2s1 (single isomer, unassigned) [Example 1365]	< 500
O=C(c1cncs1)N1CCc2[nH]cnc2[C@H]1c1nc2c(F)cccc2s1 [Example 1217, (S)-(4-(4-fluorobenzo[d]thiazol-2-yl)-6,7-dihydro-1H-imidazo[4,5-c]pyridin-5(4H)-yl)(thiazol-5-yl)methanone]	500 to 1000
O=C(c1nnc(C2CC2)o1)N1CCc2[nH]cnc2[C@@H]1c1nc2c(F)cccc2s1 [Example 1444, (R)-(5-cyclopropyl-1,3,4-oxadiazol-2-yl)(4-(4-fluorobenzo[d]thiazol-2-yl)-6,7-dihydro-1H-imidazo[4,5-c]pyridin-5(4H)-yl)methanone]	1000 to 5000
CN(C)CCc1nc(C(F)(F)F)c(C(=O)N2CCCc3[nH]cnc3[C@H]2c2nc3ccccc3s2)o1 (single isomer, unassigned) [Example 2125]	500 to 1000
O=C(c1ccno1)N1CCc2[nH]cnc2[C@H]1c1nc2cc(F)ccc2s1 [Example 2153, (S)-(4-(5-fluorobenzo [d]thiazol-2-yl)-6,7-dihydro-1H-imidazo[4,5-c]pyridin-5(4H)-yl) (iso xazol-5-yl)methanone]	1000 to 5000
Nc1nc(C(F)(F)F)c(C(=O)N2CCc3[nH]cnc3[C@@H]2c2nc3ccccc3s2)o1 [Example 1534, (R)-(2-amino-4-(trifluoromethyl)oxazol-5-yl)(4-(benzo[d]thiazol-2-yl)-6,7-dihydro-1H-imidazo[4,5-c]pyridin-5(4H)-yl)methanone]	500 to 1000
O=C(c1cnn(C(F)F)c1)N1CCc2[nH]cnc2[C@@H]1c1nc2ccccc2s1 [Example 1410, (R)-(4-(benzo[d]thiazol-2-yl)-6,7-dihydro-1H-imidazo[4,5-c]pyridin-5(4H)-yl)(1-(difluoromethyl)-1H-pyrazol-4-yl)methanone]	> 5000
O=C(c1cnc(Cc2ccccc2)s1)N1CCc2[nH]cnc2[C@H]1c1nc2ccccc2s1 [Example 1227]	1000 to 5000
O=C(c1nnc(-c2ccn(C(F)F)n2)o1)N1CCc2[nH]cnc2[C@H]1c1nc2c(F)cccc2s1 [Example 1888, (S)-(5-(1-(difluoromethyl)-1H-pyrazol-3-yl)-1,3,4-oxadiazol-2-yl)(4-(4-fluorobenzo[d]thiazol-2-yl)-6,7-dihydro-1H-imidazo[4,5-c]pyridin-5(4H)-yl)methanone]	< 500
Cc1nc([C@H](C)O)oc1C(=O)N1CCc2[nH]cnc2[C@H]1c1nc2c(F)cccc2s1 [Example 1911, ((S)-4-(4-fluorobenzo[d]thiazol-2-yl)-6,7-dihydro-1H-imidazo[4,5-c]pyridin-5(4H)-yl)(2-((S)-1-hydroxyethyl)-4-methyloxazol-5-yl)methanone]	500 to 1000
Cc1ncoc1C(=O)N1CCCc2[nH]cnc2[C@H]1c1nc2ccccc2s1 [Example 2129, (S)-(4-(benzo[d]thiazol-2-yl)-7,8-dihydroimidazo[4,5-c]azepin-5(1H,4H,6H)-yl)(4-methyloxazol-5-yl)methanone]	1000 to 5000
O=C(CC1CC1(F)F)N1CCc2[nH]cnc2[C@H]1c1nc2ccccc2s1 (single isomer, unassigned) [Example 1274]	500 to 1000

same assay, conditions: A375 cells expressing human R408W PAH; 24 hrs with compound; 13C-Tyrosine by LC-MS; average where tested multiple times; read-out: AC50

SMILES	AC50 [nM]
O=C(c1cnn2ccccc12)N1CCc2[nH]cnc2C1c1nc2ccc(Cl)cc2s1 (stereo not shown)	> 5000
O=C(Cc1cncs1)N1CCc2[nH]cnc2C1c1nc2ccccc2s1 (stereo not shown)	1000 to 5000
O=C(Cc1noc2ccccc12)N1CCc2[nH]cnc2C1c1nc2ccccc2[nH]1 (stereo not shown)	1000 to 5000
Cc1nc(C(=O)N2CCc3[nH]cnc3C2c2nc3ccccc3s2)n(C)n1 (stereo not shown)	> 5000
CNCc1ccc2c(C(=O)N3CCc4[nH]cnc4C3c3nc4ccccc4s3)cnn2c1 (stereo not shown)	> 5000
Cc1ncoc1C(=O)N1CC(C)(C)c2[nH]cnc2C1c1nc2ccccc2s1 (stereo not shown)	> 5000
